In brackets after ≈: the same amount, converted by molar mass. Where two headings read alike, the source gives them in different places.
Assays:
[1] = tested on: ICR strain mice; assay: Acute toxicity in mice, single tail vein injection; type: in vivo; conditions: one week
Method: Healthy ICR strain mice weighing 20-21 g were taken for the experiment, randomly divided into groups of 3 mice per group, regardless of gender. Each compound was administered via a single tail vein injection at a volume of 20 mL/kg. Animal responses were observed immediately postadministration and monitored for one week. The number of animal deaths was recorded and mortality rates calculated.

[2] = tested on: Vero cells; assay: Vero cytotoxicity (CCK-8); type: cell-based
Method: All liquid was transferred to a 15 mL centrifuge tube and centrifuged at 800 rpm for 5 min. […] A cell counter was used to measure cell density. Cells were inoculated at 100 µL and a density of 3 × 10^5/mL into a 96-well plate, with 6 replicates per group, and incubated at 37°C for 4 hours to allow cells to adhere to the wall. The compound was twofold continuously diluted with PBS, and 10 µL of the compound with the corresponding concentration was added to the 96-well plate, and shaken and mixed well on a shaker, and then incubated at 37°C for 24 hours. 10 µL of CCK-8 reagent was added to the 96-well plate, mixed thoroughly on a shaker, and incubated at 37°C for 2 hours. A microplate reader was used to measure the absorbance at 450 nm wavelength, and the inhibition rate of the compound on Vero cells was calculated. Table 5 Vero cytotoxicity of 4 optical isomers and control drug

[3] = tested on: Enterobacter cloacae; assay: In vitro antibacterial activity, agar dilution method (MIC); type: cell-based
Method: According to the relevant operating procedures of the Clinical Laboratory Standards Institute (CLSI) in the United States, an antimicrobial susceptibility testing was conducted using the agar dilution method. […] The agar was allowed to solidify and set aside for later use.
(§1) The test bacteria were propagated in broth and adjusted to a turbidity of 0.5 McFarland (approximately 1-2 × 10^8 CFU/mL) using a turbidimeter before inoculation. The 0.5 McFarland bacterial solution was then diluted 10-fold in broth (approximately 1-2 × 10^7 CFU/mL). A multipoint inoculator was used to inoculate the above bacterial solution onto a series of plates containing different concentrations of drugs (with an inoculation amount of approximately 10^4 CFU per inoculation site). After incubation at a constant temperature of 35°C for 18 hours, results were observed. The minimum concentration of drugs contained in sterile growth plates was determined as the Minimal Inhibitory Concentration (MIC).

[4] = tested on: Pseudomonas aeruginosa; assay: as above; type: cell-based
Method: (§2) According to the relevant operating procedures of the Clinical Laboratory Standards Institute (CLSI) in the United States, an antimicrobial susceptibility testing was conducted using the agar dilution method. […]. The agar was allowed to solidify and set aside for later use.
as §1

[5] = tested on: Proteus mirabilis; assay: as above; type: cell-based
Method: as §2, §1

[6] = tested on: Klebsiella pneumoniae; assay: as above; type: cell-based; conditions: agar dilution, 35°C
Method: as §2, §1

[7] = tested on: Serratia marcescens; assay: as above; type: cell-based
Method: as §2, §1

[8] = tested on: Citrobacter freundii; assay: as above; type: cell-based
Method: as §2, §1

[9] = tested on: Proteus vulgaris; assay: as above; type: cell-based
Method: as §2, §1

[10] = tested on: Escherichia coli; assay: as above; type: cell-based; conditions: agar dilution, 35°C
Method: as §2, §1

[11] = tested on: Enterobacter aerogenes; assay: as above; type: cell-based
Method: as §2, §1

[12] = tested on: Pantoea agglomerans; assay: as above; type: cell-based
Method: as §2, §1

[13] = tested on: Shigella flexneri; assay: as above; type: cell-based; conditions: 18 hours
Method: According to the relevant operating procedures of the Clinical Laboratory Standards Institute (CLSI) in the United States, an antimicrobial susceptibility testing was conducted using the agar dilution method. A 1920 µg/mL stock solution was serially diluted twofold with sterile water to obtain dilutions of 960, 480, 240, 120, 60, 30, 15, 7.5, 3.75, 1.88, 0.94, 0.47 µg/mL, and 1 mL of the dilution was taken respectively from the dilutions with different concentrations and added to a Petri dish, to which 14 mL of melted MH agar medium was added and mixed thoroughly, and the final concentration of the drug in the petri dish is 128, 64, 32, 16, 8, 4, 2, 1, 0.5, 0.25, 0.12, 0.06, and 0.03 µ g/mL, respectively. The agar was allowed to solidify and set aside for later use.
as §1

[14] = tested on: Escherichia coli ATCC BAA2469 (CRE, NDM-1-producing); assay: In vivo antibacterial activity, intraperitoneal infection in mice (survival over 7 days); conditions: for effective dose of in vivo antibacterial activity: mice with intraperitoneal infection by Escherichia coli ATCC BAA2469, intravenous; for Animal survival rate / Number of surviving animals: mice, one intravenous administration 1 hour post-infection, 7 days; for Number of surviving animals: 5 animals per group
Method: Mice were randomly grouped based on body weight, with 5 mice in each group, regardless of gender. The infectious bacteria was Escherichia coli ATCC BAA2469 (CRE, NDM-1-producing). The test bacterial solution was diluted with 5% high-activity dry yeast. Mice received intraperitoneal injection of 0.5 mL of 100% minimum lethal dose (100% MLD) bacterial solution. One intravenous administration was given at 1 hour post-infection at a dose volume of 10 mL/kg. Animal survival numbers were observed over 7 days, and survival rates were calculated.

COCC1CC1C#CC#Cc1ccc(C(=O)NC(C(=O)NO)C(C)(C)N)cc1 (mixture of isomers) [Ia/Ib racemate] gave a Mortality rate ([1]; dose 100 mg/kg) of 0%, a Number of deaths ([1]; dose 100 mg/kg) of 0 individuals and a Mortality rate ([1]; dose 150 mg/kg) of 100%. For the same compound, the Number of deaths ([1]; dose 150 mg/kg) was 3 individuals, the IC50 ([2]; Vero cells, 24 hours incubation, CCK-8, read-out: IC50) was over 128 µM and the MIC ([3]; Enterobacter cloacae CDC1000654 (NDM-1-producing), agar dilution, 35°C, 18 hours) was 2 µg/mL. For the same compound, the MIC ([4]; Pseudomonas aeruginosa PAO1, agar dilution, 35°C, 18 hours) was 1 µg/mL, the MIC ([5]; Proteus mirabilis ATCC 49565, agar dilution, 35°C, 18 hours) was 1 µg/mL and the MIC ([6]; Klebsiella pneumoniae 09-20 (mcr-1), 18 hours) was 0.5 µg/mL. The MIC ([6]; Klebsiella pneumoniae 17-R27 (CRE), 18 hours) was 1 µg/mL, the MIC ([6]; Klebsiella pneumoniae 18-8 (ESBLs-producing), 18 hours) was 0.5 µg/mL and the MIC ([6]; Klebsiella pneumoniae ATCC 700603 (ESBLs-producing), 18 hours) was 2 µg/mL. It also gave an MIC ([6]; Klebsiella pneumoniae ATCC BAA-2146 (CRE, NDM-1-producing), 18 hours) of 2 µg/mL, an MIC ([7]; Serratia marcescens ATCC 21074, agar dilution, 35°C, 18 hours) of 0.25 µg/mL and an MIC ([8]; Citrobacter freundii ATCC 43864, agar dilution, 35°C, 18 hours) of 0.25 µg/mL. It also gave an MIC ([9]; Proteus vulgaris ATCC 29905, agar dilution, 35°C, 18 hours) of 0.25 µg/mL, an MIC ([10]; Escherichia coli 13-43 (mcr-1), 18 hours) of 0.12 µg/mL and an MIC ([10]; Escherichia coli 17-R28 (CRE, NDM-1-producing), 18 hours) of 0.12 µg/mL. It also gave an MIC ([10]; Escherichia coli ATCC 2469 (CRE, NDM-1-producing), 18 hours) of 0.5 µg/mL, an MIC ([10]; Escherichia coli ATCC 35218 (ESBLs-producing), 18 hours) of 0.25 µg/mL and an MIC ([11]; Enterobacter aerogenes ATCC 13048, agar dilution, 35°C, 18 hours) of 1 µg/mL. For the same compound, the MIC ([12]; Pantoea agglomerans ATCC 27993, agar dilution, 35°C, 18 hours) was 1 µg/mL, the MIC ([13]; Shigella flexneri ATCC 12022, 35°C) was 0.12 µg/mL and the “effective dose of in vivo antibacterial activity” value [14] was “below 1.5 mg/kg”. For the same compound, the Animal survival rate ([14]; dose 0.35 mg/kg) was 0%, the “Number of surviving animals” value ([14]; dose 0.35 mg/kg) was 0 individuals and the Animal survival rate ([14]; dose 0.7 mg/kg) was 0%. The “Number of surviving animals” value ([14]; dose 0.7 mg/kg) was 0 individuals, the Animal survival rate ([14]; dose 1.4 mg/kg) was 40% and the “Number of surviving animals” value ([14]; dose 1.4 mg/kg) was 2 individuals.

CC(C)(N)[C@H](NC(=O)c1ccc(C#CC#C[C@@H]2C[C@H]2CO)cc1)C(=O)NO [ACHN-975] gave a Mortality rate ([1]; dose 50 mg/kg) of 0%, a Number of deaths ([1]; dose 50 mg/kg) of 0 individuals and a Mortality rate ([1]; dose 100 mg/kg) of 67%. For the same compound, the Number of deaths ([1]; dose 100 mg/kg) was 2 individuals, the Mortality rate ([1]; dose 150 mg/kg) was 100% and the Number of deaths ([1]; dose 150 mg/kg) was 3 individuals. The IC50 ([2]; Chlorocebus sabaeus, Vero, 24 h) was over 128 µM, the MIC ([3]; Enterobacter cloacae, 18 h) was 4 µg/mL (≈ 10.8 µM) and the MIC ([4]; Pseudomonas aeruginosa, PAO1, 18 h) was 0.25 µg/mL (≈ 0.677 µM). The MIC ([5]; Proteus mirabilis, ATCC49565, 18 h) was 2 µg/mL (≈ 5.41 µM), the MIC ([6]; Klebsiella pneumoniae, 18 h, Klebsiella pneumoniae 09-20 (mcr-1)) was 1 µg/mL (≈ 2.71 µM) and the MIC ([6]; Klebsiella pneumoniae, 18 h, Klebsiella pneumoniae 17-R27 (CRE)) was 2 µg/mL (≈ 5.41 µM). It also gave an MIC ([6]; Klebsiella pneumoniae, 18 h, Klebsiella pneumoniae 18-8 (ESBLs-producing), 18 hours, read-out: MIC) of 1 µg/mL (≈ 2.71 µM), an MIC ([6]; Klebsiella pneumoniae, ATCC700603, 18 h, Klebsiella pneumoniae ATCC 700603 (ESBLs-producing), 18 hours, read-out: MIC) of 4 µg/mL (≈ 10.8 µM) and an MIC ([6]; Klebsiella pneumoniae, ATCCBAA2146, 18 h, Klebsiella pneumoniae ATCC BAA-2146 (CRE, NDM-1-producing), 18 hours) of 4 µg/mL (≈ 10.8 µM). The MIC ([7]; Serratia marcescens, ATCC21074, 18 h) was 0.25 µg/mL (≈ 0.677 µM), the MIC ([8]; Citrobacter freundii, ATCC43864, 18 h) was 0.5 µg/mL (≈ 1.35 µM) and the MIC ([9]; Proteus vulgaris, ATCC29905, 18 h) was 0.06 µg/mL (≈ 0.162 µM). It also gave an MIC ([10]; Escherichia coli, 18 h, Escherichia coli 13-43 (mcr-1)) of 0.5 µg/mL (≈ 1.35 µM), an MIC ([10]; Escherichia coli, 18 h, Escherichia coli 17-R28 (CRE, NDM-1-producing)) of 0.5 µg/mL (≈ 1.35 µM) and an MIC ([10]; Escherichia coli, ATCC2469, 18 h, Escherichia coli ATCC 2469 (CRE, NDM-1-producing), 18 hours) of 0.5 µg/mL (≈ 1.35 µM). For the same compound, the MIC ([10]; Escherichia coli, ATCC35218, 18 h, Escherichia coli ATCC 35218 (ESBLs-producing), 18 hours, read-out: MIC) was 0.5 µg/mL (≈ 1.35 µM), the MIC ([11]; Klebsiella aerogenes, ATCC13048, 18 h) was 1 µg/mL (≈ 2.71 µM) and the MIC ([12]; Pantoea agglomerans, ATCC27993, 18 h) was 4 µg/mL (≈ 10.8 µM). The MIC ([13]; ATCC12022, Shigella flexneri ATCC 12022, 35°C, read-out: MIC) was 0.12 µg/mL (≈ 0.325 µM), the “effective dose of in vivo antibacterial activity” value [14] was over 1.5 mg/kg and the Animal survival rate ([14]; dose 1.5 mg/kg) was 0%. For the same compound, the “Number of surviving animals” value ([14]; dose 1.5 mg/kg) was 0 individuals, the Animal survival rate ([14]; dose 3 mg/kg) was 60% and the “Number of surviving animals” value ([14]; dose 3 mg/kg) was 3 individuals. The Animal survival rate ([14]; dose 6 mg/kg) was 100% and the “Number of surviving animals” value ([14]; dose 6 mg/kg) was 5 individuals.
